In PubChem BioAssay (NCI):
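Growth conditions: 96-well plates. Treatment: test compound, 48 hours, 5 concentrations. Analysis: linear interpolation between bracketing concentrations; unreached endpoints set to highest concentration. GI50 is the concentration that inhibits growth by half. At the TGI there is no net growth.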

Key:
Experiment in all cases: NCI tumour cell line growth inhibition, 48 h
[1] = system: ACHN renal
[2] = system: HCT-15 colon
[3] = system: HOP-62 NSCLC
[4] = system: RPMI-8226 leukemia
[5] = system: SN12C renal
[6] = system: SR leukemia
[7] = system: RXF 393 renal

SMILES	TGI [1] [µM]	TGI [2] [µM]	TGI [3] [µM]	TGI [4] [µM]	TGI [5] [µM]	TGI [6] [µM]	TGI [7] [µM]	GI50 [4] [µM]	GI50 [6] [µM]
CC(=O)c1ccc(OCC(O)CO)cc1 (stereo not drawn)	> 100	> 100	> 100	> 100	> 100	–	–	–	–
CC(=O)Nc1cc(N(CCOS(C)(=O)=O)CCOS(C)(=O)=O)ccc1N=O	> 100	> 100	> 100	> 100	–	> 100	–	–	–
COC(=O)C(CC(C)C)NC(=O)NC12CC3CC(CC(F)(C3)C1)C2 (stereo not drawn)	> 100	–	> 100	> 100	–	–	> 100	–	–
CCOC(=O)CSC(=O)NCCCl	> 100	> 100	> 100	> 100	> 100	> 100	> 100	> 100	> 100
COC(=O)/C=C(\C(=O)OC)c1c2c3c(cc(OC)c(OC)c3c3ccccc13)CCN2C	> 100	> 100	76.7	> 100	> 100	> 100	> 100	–	–
COC(=O)/C(=N\Nc1nc(=S)[nH]n1N)C(C#N)c1ccccc1 (stereo not drawn)	> 100	> 100	> 100	> 100	> 100	–	> 100	–	–
CCCCCCCCCCCCCC(=O)OCC1OC(n2cc(F)c(=O)[nH]c2=O)C(NC(=O)OCc2ccccc2)C(OC(=O)CCCCCCCCCCCCC)C1O (stereo not drawn)	> 100	> 100	> 100	> 100	> 100	> 100	> 100	–	–
CC(/C(=N\Nc1ccccc1)c1ccc(O)cc1)C1C(=O)Oc2ccccc21 (stereo not drawn)	> 100	> 100	> 100	> 100	> 100	> 100	> 100	–	–
COC(=O)C(C(=O)C(=O)Nc1nc(=S)[nH][nH]1)c1csc(-n2nc(-c3ccccc3)cc2-c2ccccc2)n1 (stereo not drawn)	> 100	> 100	> 100	> 100	> 100	> 100	> 100	–	–
CCOC(=O)C1C2CCC(C2)C1(CCl)C(=O)OCC (stereo not drawn)	> 100	> 100	> 100	> 100	> 100	> 100	–	–	–
O=C1c2ccccc2C(=O)N1CCN(CCN1C(=O)c2ccccc2C1=O)Cn1cccn1	> 100	> 100	> 100	83.4	> 100	–	> 100	–	–
CC(=O)OC1CCCn2c1nc1c2C(=O)C(C)=C(N2CC2)C1=O (stereo not drawn)	1.25	0.726	0.625	14.2	1.5	> 100	0.768	–	–
CNCc1cc(OC)ccc1-c1ccc(OC)c(OC)c1OC	> 100	> 100	> 100	> 100	> 100	> 100	> 100	–	–
CC1SC2=NC3=C(c4ccccc4C3=O)C(c3ccc(Cl)cc3)N2C1=O (stereo not drawn)	> 100	> 100	> 100	> 100	> 100	–	–	–	–
CC1=NOC(=O)/C1=C/c1cccc2ccccc12	> 100	> 100	> 100	> 100	> 100	> 100	> 100	–	–
O=C1CCC2CC(C(=O)c3ccccc3)CCC2CN1 (stereo not drawn) (tested in a mixture with another compound)	> 100	> 100	> 100	> 100	> 100	> 100	> 100	–	–
NNC(=O)CNC(=O)c1ccc(Cl)cc1Cl	> 100	> 100	> 100	> 100	> 100	–	–	–	–
CC1C[C@H](C)CC(C(O)CC2CC(=O)N(Cc3ccccc3)C(=O)C2)C1O (stereo partly drawn)	> 100	–	> 100	> 100	> 100	> 100	> 100	–	–
O=C(c1ccccc1)[C@H]1Nc2ccc(Cl)cc2C2c3ccccc3CC21 (stereo partly drawn)	> 100	> 100	> 100	> 100	> 100	> 100	45.4	–	–
Cc1cc2c(cc1C)[n+](=O)c(C(=O)C/C(=N/OCCCc1ccccc1)C(=O)Nc1cc(Cl)ccc1Cl)c(C)n2[O-]	> 100	> 100	> 100	–	> 100	–	> 100	–	–
N#Cc1c2c(c(N=P(c3ccccc3)(c3ccccc3)c3ccccc3)n3c1nc1ccccc13)CCCC2	67.5	> 100	71.5	61.6	39.6	–	98.5	–	–
CC[P+](C)(C)c1ccccc1	> 100	> 100	> 100	> 100	> 100	–	> 100	–	–
CCCCCCCCOCC(O)COC(=O)CCCCCCC (stereo not drawn)	> 100	> 100	> 100	> 100	> 100	> 100	–	–	–
